Assay results from US20030157553A1, “Methods of assaying for G protein-coupled receptor ligands and modulators” (priority 2000, published 2003).

Key:
β2AR [1] = experiment: Agonist affinity shift assay ([125I] iodopindolol), formation of high agonist affinity complex (HAC); assay type: binding; conditions: 1 μM arrestin, FIG. 2A
From the text: Mutagenesis and Biochemical Characterization of β-Arrestins—Mutations Arg169→Glu (CGG→GAG), Gln394→Ter (CAA→TAA), and Asp383→Ter (GAT→TAG) were introduced by polymerase chain reaction in β-arrestin construct pBARR (Gurevich et al. (1995) J. Biol. Chem. 270:720-731), that was used for in vitro transcription and translation, as described (Gurevich et al. (1995), supra). NcoI/HindIII 1404-base pair open reading frame was then subdloned into appropriately digested Escherichia coliexpression vector pTrcHisB (Invitrogen). […]
Agonist Affinity ShiftAssay—P-β2AR or β2AR (10-15 fmol/assay) was incubated in 0.25 ml of 10 mM Tris-HCl, pH 7.4, 100 mM NaCl (buffer A) containing 0.1 mg/ml bovine serum albumin in the presence of 65-75 fmol of [^125I] iodopindolol (NEN Life Science Products) and the indicated concentrations of arrestins and agonists for 60 min at 22° C. […] Receptor-containing liposomes with bound radioligand were eluted with buffer A (between 0.6 and 1.5 ml), and radioactivity was quantitated in a liquid scintillation counter. Nonspecific binding was determined in the presence of 10 μM alprenolol. […]

β2AR [2] = experiment: Direct binding assay of in vitro translated tritiated arrestins to purified β2AR reconstituted into phospholipid vesicles; conditions: activated by 0.1 mM agonist isoproterenol, FIG. 1A; for binding to activated unphosphorylated receptor: unphosphorylated β2AR
From the text: Mutagenesis and Biochemical Characterization of β-Arrestins—Mutations Arg169→Glu (CGG→GAG), Gln394→Ter (CAA→TAA), and Asp383→Ter (GAT→TAG) were introduced by polymerase chain reaction in β-arrestin construct pBARR (Gurevich et al. (1995) J. Biol. Chem. 270:720-731), that was used for in vitro transcription and translation, as described (Gurevich et al. (1995), supra). NcoI/HindIII 1404-base pair open reading frame was then subdloned into appropriately digested Escherichia coliexpression vector pTrcHisB (Invitrogen). All β-arrestin species were expressed in the in vitro translation system and tested in the direct binding assay (Gurevich et al. (1995), supra), overexpressed in E. coli, purified to apparent homogeneity (Gray-Keller et al. (1997) Biochemistry 36:7058-7063), and characterized in the agonist affinity shift assay (Gurevich et al. (1997) J. Biol Chem. 272:28849-28852), essentially as described.
Direct Binding Assay—In vitro translated tritiated arrestins (50 fmol) were incubated in 50 mM Tris-HCl, pH 7.5, 0.5 mM MgCl2, 1.5 mM dithiothreitol, 50 mM potassium acetate with 7.5 pmol of the various functional forms of rhodopsin or with P-β2AR or β2AR (100 fmol/assay) in a final volume of 50 μl for 5 min at 37° C. in room light (rhodopsin) or for 60 min at 30° C. in the presence of 0.1 mM -agonist isoproterenol. The samples were immediately cooled on ice and loaded onto 2 ml Sepharose 2B columns equilibrated with 20 mM Tris-HCl, pH 7.5, 2 mM EDTA. Bound arrestin eluted with receptor-containing membranes in the void volume (between 0.5 and 1.1 ml). Nonspecific binding determined in the presence of 0.3 μg of liposomes was subtracted.

Row | Substance | percentage of HAC formed by unphosphorylated β2AR (β2AR [1]) [%] | binding to activated unphosphorylated receptor (β2AR [2]) | binding to activated and phosphorylated β2AR (β2AR [2]; phosphorylated β2AR (P-β2AR))
1 | β-arrestin-(1-382): bovine β-arrestin mutant Asp383→Ter, truncated regulatory COOH terminus | 22±4 | significantly higher binding | –
2 | β-arrestin-(1-393): bovine β-arrestin mutant Gln394→Ter, part of the regulatory COOH terminus deleted | – | bind poorly | –
3 | β-arrestin: wild type bovine β-arrestin, comparator for the mutants | – | bind poorly | readily bind
